Measurements reported in ChEMBL document CHEMBL1201862, “PubChem BioAssay data set” (2004).
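Briefly, cells in 96-well plates were exposed to five compound concentrations for 48 h, and endpoints were estimated by linear interpolation. GI50 is the concentration that inhibits growth by half.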 Active and inactive are the calls of the source. No stated cut-off is given here; in the data, active = GI50 up to about 1.1 µM and inactive = higher.

Columns and labels:
Test in all cases: DTP human tumour cell line panel, 48 h
ACHN = tested on: ACHN
BT-549 = tested on: BT-549
CCRF-CEM = tested on: CCRF-CEM
DU-145 = tested on: DU-145
HOP-62 = tested on: HOP-62
KM12 = tested on: KM12
MDA-MB-231 = tested on: MDA-MB-231
MOLT-4 = tested on: MOLT-4
NCI/ADR-RES = tested on: NCI/ADR-RES
RXF 393 = tested on: RXF 393
SF-539 = tested on: SF-539
SK-MEL-5 = tested on: SK-MEL-5
SN12C = tested on: SN12C
SNB-19 = tested on: SNB-19
SNB-75 = tested on: SNB-75
SR = tested on: SR
TK-10 = tested on: TK-10
UACC-257 = tested on: UACC-257
UO-31 = tested on: UO-31
A498 = tested on: A498

SMILES | GI50 (ACHN) | GI50 (BT-549) | GI50 (CCRF-CEM) | GI50 (DU-145) | GI50 (HOP-62) | GI50 (KM12) | GI50 (MDA-MB-231) | GI50 (MOLT-4) | GI50 (NCI/ADR-RES) | GI50 (RXF 393) | GI50 (SF-539) | GI50 (SK-MEL-5) | GI50 (SN12C) | GI50 (SNB-19) | GI50 (SNB-75) | GI50 (SR) | GI50 (TK-10) | GI50 (UACC-257) | GI50 (UO-31) | GI50 (A498)
Cc1cc(C)c(S(=O)(=O)N(CCCN)OCCCN)c(C)c1 | > 100 µM (inactive) | > 100 µM (inactive) | > 100 µM (inactive) | > 100 µM (inactive) | 6.52 µM (inactive) | > 100 µM (inactive) | > 100 µM (inactive) | > 100 µM (inactive) | > 100 µM (inactive) | > 100 µM (inactive) | > 100 µM (inactive) | > 100 µM (inactive) | > 100 µM (inactive) | > 100 µM (inactive) | > 100 µM (inactive) | > 100 µM (inactive) | > 100 µM (inactive) | > 100 µM (inactive) | > 100 µM (inactive) | –
Cc1ccc(CC2(OCCN(C)C)CCC(C(C)(C)C)CC2)cc1 (stereo not drawn) | 6.87 µM (inactive) | 4.61 µM (inactive) | 2.41 µM (inactive) | 3.78 µM (inactive) | 3.01 µM (inactive) | 3.62 µM (inactive) | 6.01 µM (inactive) | 1.71 µM (inactive) | 6.73 µM (inactive) | – | 1.81 µM (inactive) | 1.58 µM (inactive) | 4.8 µM (inactive) | 4.39 µM (inactive) | 6.81 µM (inactive) | 2.04 µM (inactive) | 4.47 µM (inactive) | 2.65 µM (inactive) | 3.49 µM (inactive) | 13 µM (inactive)
CNCCN[C@@H]1c2cc3c(cc2[C@@H](c2cc(OC)c(O)c(OC)c2)[C@H]2C(=O)OC[C@@H]21)OCO3 | 0.106 µM (active) | 0.207 µM (active) | 0.0138 µM (active) | 0.27 µM (active) | 0.141 µM (active) | 0.406 µM (active) | 0.37 µM (active) | 0.0104 µM (active) | 68.2 µM (inactive) | 0.229 µM (active) | 0.0678 µM (active) | 0.148 µM (active) | 0.0738 µM (active) | 0.291 µM (active) | 0.274 µM (active) | 0.0122 µM (active) | 1.49 µM (inactive) | 0.652 µM (active) | 1.32 µM (inactive) | –
CC1(C)CCN2C(=O)C34CCCC3CC21S4 (stereo not drawn) | > 100 µM (inactive) | > 100 µM (inactive) | 78 µM (inactive) | > 100 µM (inactive) | > 100 µM (inactive) | > 100 µM (inactive) | > 100 µM (inactive) | > 100 µM (inactive) | > 100 µM (inactive) | > 100 µM (inactive) | > 100 µM (inactive) | > 100 µM (inactive) | > 100 µM (inactive) | > 100 µM (inactive) | – | > 100 µM (inactive) | > 100 µM (inactive) | > 100 µM (inactive) | > 100 µM (inactive) | > 100 µM (inactive)
CC[C@@]1(O)C(=O)OCc2c1cc1n(c2=O)Cc2c-1nc1ccccc1c2/C=N\NC(=O)C(N)CO (stereo partly drawn) | 0.191 µM (active) | 2.56 µM (inactive) | 0.0474 µM (active) | 0.379 µM (active) | 0.201 µM (active) | 5.92 µM (inactive) | 28.4 µM (inactive) | 0.0466 µM (active) | 0.785 µM (active) | 1.14 µM (inactive) | 0.138 µM (active) | 0.684 µM (active) | 0.182 µM (active) | 0.202 µM (active) | – | 0.0386 µM (active) | > 60.7 µM (inactive) | 3.59 µM (inactive) | 0.667 µM (active) | 1.65 µM (inactive)
CC(=O)NCCC1CNc2ccccc21 (stereo not drawn) | > 100 µM (inactive) | > 100 µM (inactive) | > 100 µM (inactive) | > 100 µM (inactive) | – | > 100 µM (inactive) | > 100 µM (inactive) | > 100 µM (inactive) | > 100 µM (inactive) | > 100 µM (inactive) | > 100 µM (inactive) | > 100 µM (inactive) | > 100 µM (inactive) | > 100 µM (inactive) | – | > 100 µM (inactive) | > 100 µM (inactive) | > 100 µM (inactive) | > 100 µM (inactive) | > 100 µM (inactive)
CCC(=O)NC(Nc1ccccc1F)(C(F)(F)F)C(F)(F)F | > 100 µM (inactive) | > 100 µM (inactive) | > 100 µM (inactive) | > 100 µM (inactive) | – | > 100 µM (inactive) | > 100 µM (inactive) | > 100 µM (inactive) | > 100 µM (inactive) | > 100 µM (inactive) | > 100 µM (inactive) | > 100 µM (inactive) | > 100 µM (inactive) | > 100 µM (inactive) | > 100 µM (inactive) | > 100 µM (inactive) | > 100 µM (inactive) | > 100 µM (inactive) | > 100 µM (inactive) | –
COc1ccc2c(c1)OCc1c-2oc2ccccc2c1=O | 61.1 µM (inactive) | > 100 µM (inactive) | > 100 µM (inactive) | > 100 µM (inactive) | 53.7 µM (inactive) | > 100 µM (inactive) | 30.1 µM (inactive) | > 100 µM (inactive) | > 100 µM (inactive) | – | 40.1 µM (inactive) | 41.1 µM (inactive) | > 100 µM (inactive) | – | 34.5 µM (inactive) | > 100 µM (inactive) | > 100 µM (inactive) | > 100 µM (inactive) | > 100 µM (inactive) | > 100 µM (inactive)
N#CC(/N=N/c1ccc(Cl)cc1)c1nc2ccccc2o1 (stereo not drawn) | 32.9 µM (inactive) | 32.6 µM (inactive) | 21.1 µM (inactive) | > 100 µM (inactive) | 38.3 µM (inactive) | 89.7 µM (inactive) | 37 µM (inactive) | 20.5 µM (inactive) | > 100 µM (inactive) | 37.6 µM (inactive) | 24.6 µM (inactive) | > 100 µM (inactive) | > 100 µM (inactive) | 42.7 µM (inactive) | – | 43.7 µM (inactive) | 56.6 µM (inactive) | > 100 µM (inactive) | > 100 µM (inactive) | 49 µM (inactive)
COc1ccc(OC)c(C(=O)c2cccc(C(=O)c3cc(OC)ccc3OC)n2)c1 | 43.5 µM (inactive) | 22.9 µM (inactive) | 46.8 µM (inactive) | 93.1 µM (inactive) | 37.1 µM (inactive) | 33.9 µM (inactive) | 58.7 µM (inactive) | 30.8 µM (inactive) | 29 µM (inactive) | 5.12 µM (inactive) | 28.6 µM (inactive) | 15 µM (inactive) | 57.1 µM (inactive) | 43.3 µM (inactive) | 19.9 µM (inactive) | 32.7 µM (inactive) | 35.5 µM (inactive) | 53.2 µM (inactive) | 17.9 µM (inactive) | –
N#C/C(=C\c1ccc(F)cc1)c1nc(-c2cc3ccccc3oc2=O)cs1 | 22 µM (inactive) | 12.3 µM (inactive) | > 100 µM (inactive) | 38.6 µM (inactive) | 8.28 µM (inactive) | 59 µM (inactive) | 12.7 µM (inactive) | > 100 µM (inactive) | 30.9 µM (inactive) | 18.6 µM (inactive) | 18 µM (inactive) | 15.3 µM (inactive) | 74 µM (inactive) | 11.8 µM (inactive) | 7.01 µM (inactive) | > 100 µM (inactive) | 16.4 µM (inactive) | 20.7 µM (inactive) | 26.9 µM (inactive) | –
CCCCCC/C=C\CCCCCCCCCc1c(O)c(OC)cc(O)c1CN(C)C | 10.7 µM (inactive) | 9.2 µM (inactive) | 0.887 µM (active) | 17.9 µM (inactive) | 12.8 µM (inactive) | 3.34 µM (inactive) | 14.5 µM (inactive) | 1.69 µM (inactive) | 5.89 µM (inactive) | – | 5.3 µM (inactive) | 5.41 µM (inactive) | 4.83 µM (inactive) | 12.9 µM (inactive) | 2.79 µM (inactive) | 0.692 µM (active) | 14.6 µM (inactive) | 11.4 µM (inactive) | 4.21 µM (inactive) | 17 µM (inactive)
Nc1ccc(Nc2cc(=O)[nH]c(=O)[nH]2)cc1Cl | > 100 µM (inactive) | > 100 µM (inactive) | > 100 µM (inactive) | > 100 µM (inactive) | – | – | > 100 µM (inactive) | > 100 µM (inactive) | > 100 µM (inactive) | – | > 100 µM (inactive) | > 100 µM (inactive) | > 100 µM (inactive) | > 100 µM (inactive) | – | > 100 µM (inactive) | > 100 µM (inactive) | > 100 µM (inactive) | > 100 µM (inactive) | > 100 µM (inactive)
Cc1cc(N(C)C)ccc1/N=N/c1ccc2ncccc2c1 | > 100 µM (inactive) | 35.2 µM (inactive) | 40 µM (inactive) | > 100 µM (inactive) | – | 66.7 µM (inactive) | 84.1 µM (inactive) | 16.8 µM (inactive) | > 100 µM (inactive) | > 100 µM (inactive) | > 100 µM (inactive) | 17.2 µM (inactive) | > 100 µM (inactive) | 28.9 µM (inactive) | 25.4 µM (inactive) | 44.4 µM (inactive) | 25.6 µM (inactive) | 98.4 µM (inactive) | > 100 µM (inactive) | –
CCC(=O)NCCc1c2c3c(ccnc3c3ncsc13)-c1ccccc1N2 [KUANONIAMINE C] | 0.583 µM (active) | 2.69 µM (inactive) | 2.86 µM (inactive) | 0.603 µM (active) | 2.94 µM (inactive) | 2.33 µM (inactive) | 4.02 µM (inactive) | 1.4 µM (inactive) | 4.99 µM (inactive) | 4.16 µM (inactive) | 1.06 µM (active) | 2.72 µM (inactive) | 0.724 µM (active) | 4.36 µM (inactive) | 6.89 µM (inactive) | – | 6.32 µM (inactive) | 6 µM (inactive) | 0.53 µM (active) | 0.989 µM (active)
